In US20220280513A1, “ENHANCING THE ANTIVIRAL EFFICACY OF RNA VIRUS INHIBITION BY COMBINATION WITH MODULATORS OF PYRIMIDINE METABOLISM” (The Board of Trustees of the Leland Stanford Junior …, priority 2019, published 2022):

What was measured:
[1] = system: intracellular uridine and cytidine nucleotide levels; assay: LC-MS/MS analysis of intracellular nucleotides in A549 cells; assay type: cell-based; details: 250 μM with 1 μM GSK983, 5 μM uridine, 6 h
Experimental: FIG. 7. LC-MS analysis of intracellular nucleotides. (A) LC-MS analysis of intracellular uridine and cytidine nucleotide levels after 6 h treatments. In all assays, the culture medium was supplemented with 5 μM uridine and 1 μM GSK983. Error bars represent ±S.D. of two replicates. (B) LC-MS detection of mono-, di- and tri-phosphates of CPU and 5-F-CPU in cells. LC-MS/MS was performed on an Agilent 1290 infinity II LC system tandem with 6370 triple quad mass spectrometer using ion pairing chromatography. LC separation was performed at 40° C. with a solvent flow rate of 0.25 mL/min on a Zorbax RRHD Extended-C18 column (2.1×150 mm, 1.8 μM). Buffer A contained 97% H2O, 3% MeOH, 5 mM tributylamine, 5.5 mM Acetic acid and 1 μM medronic acid with pH=5.0; Buffer B contains ca. 100% MeOH, 5 mM tributylamine, 5.5 mM Acetic acid and 5 μM medronic acid with pH=7.0 The initial mobile phase composition was 100% solvent A, and a constant or linear gradient was applied after sample injection with eluent B varying as follows: 0% at 2.5 min, 20% at 7.5 min, 45% at 14 min, 99% at 20 to 23 min, and 0% from 23.1 to 27.1 min. […] Samples were measured in the negative ESI mode with capillary voltage at −3.5 kV. […]
With optimized sampling and detection method in hand, pyrimidine nucleotide levels were measured in cells cultured with either 250 μM CPU, 5-F-CPU or 5′-F-CPU in combination with 1 μM GSK983 (FIG. 7A). […]

DENV-2 virus = assay: Pilot antiviral assay, DENV-Luc replication in A549 cells (FIG. 2); assay type: cell-based, dengue serotype 2 (DENV-2) strain 16681
Experimental: We therefore focused our efforts on evaluating CPU in combination with GSK983. Using an infectious clone of dengue serotype 2 (DENV-2) strain 16681 engineered to express a luciferase reporter, the efficacy and cytotoxicity of combinations of GSK983 and CPU were assessed in infected or uninfected cultures of the A549 lung carcinoma cell line (FIG. 2). […] However, a combination of 0.2 μM GSK and 250 μM CPU inhibited ca. 50% of virus replication.
DENV-Luc reporter virus generation: The design of the pDENV-Luc infectious clone derived from dengue serotype 2 (DENV-2) strain 16681 was described in detail by Marceau et al (Marceau et al., 2016). The plasmid was linearized with Xbal and in vitro transcribed into the genomic RNA of DENV-Luc virus using the T7 Megascript Kit (Ambion) in the presence of m7G(5′)ppp(5′)G RNA Cap Structure Analog (NEB). 5 μg DENV-Luc RNA was electroporated into 2×10^6 Vero cells. The transfected cells were resuspended with Dulbecco's modified Eagle's medium (DMEM; Invitrogen) with 10% FBS and 100 U/ml penicillin-streptomycin and transferred into a T-175 flask incubated at 37° C. with 5% CO2. Supernatants were collected and replenished with fresh medium every 24 h from day 17 to 24 post-transfection, pooled together, clarified by centrifugation and stored in aliquots at −80° C. The amount of infectious DENV-Luc virus in the stock was titrated using the TCID50 assay and calculated by the Spearman & Kärber algorithm as described previously (Hierholzer and Killington, 1996).
Pilot Antiviral Assays (for FIG. 2): A549 cells were plated overnight at 20,000 cells/well in 24-well plates in complete DMEM and incubated for 24 h at 37° C. Cell were then treated with pyrimidine de novo synthesis and/or salvage inhibitors in DMEM supplemented with 20 μM uridine. Four hours after drug addition, cells were infected with DENV-2 virus at a MOI=0.01. After 48 h, DENV-Luc replication was monitored by the production of Renilla luciferase, which was measured using the Renilla-Glo Luciferase Assay System (Promega) according to the specifications of the manufacturer. For the accompanying cell viability assay, A549 cells were seeded into 24-well plates at a density of 20,000 cells/well incubated for 24 h at 37° C. Cell were then treated with pyrimidine de novo synthesis and/or salvage inhibitors in DMEM supplemented with 20 μM uridine. Following 48h treatment, cells were harvested, and the density of viable cells was determined by flow cytometry (FSC/SSC) using a BD Accuri C6 Flow Cytometer.

[2] = dose of 1 g/kg; cited from earlier work

SMILES: O=c1ccn([C@@H]2C=C(CO)[C@@H](O)[C@H]2O)c(=O)[nH]1 [CPU, 1-((1R,4R,5S)-4,5-dihydroxy-3-(hydroxymethyl)cyclopent-2-en-1-yl)pyrimidine-2,4(1H,3H)-dione]
- depletion of UTP and CTP concentrations [1]: more strongly than 5-F-CPU
- decrease of DENV-2 titer, synergy (DENV-2 virus; CPU combined with GSK983, exogenous uridine): synergized with GSK983
- virus replication (DENV-2 virus; CPU dose of 1 mM in combination with GSK, 20 μM exogenous uridine): suppressed almost completely
- inhibition of replication of DENV-2 virus, single agent (DENV-2 virus; alone, 20 μM exogenous uridine): neither GSK nor CPU alone inhibited replication
- inhibition of virus replication (DENV-2 virus; combination of 0.2 μM GSK and 250 μM CPU, 20 μM exogenous uridine): ca. 50%
- toxicity in mice [2]: does not show appreciable toxicity
